According to patent US20080132505A1 (Glaxo Group Limited, priority 2004, published 2008):
Where two headings read alike, the source gives them in different places.

Target: human cannabinoid CB2 receptor (Homo sapiens, UniProt P34972)
Assay: Cannabinoid CB2 receptor agonist activity (yeast reporter assay, FDGlu fluorescence)
Type: cell-based
Settings: for Emax: read-out: efficacy value (Emax relative to HU210) at the cloned human cannabinoid CB2 receptor
Summary of the method: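 S. cerevisiae MMY23 expressing human CB2 with a Gpa1/Gαi3 chimeric G-protein, grown 24 h at 30 °C with agonist (1% DMSO) in selective media containing 10 mM 3-aminotriazole and FDGlu, pH 7.0. Fluorescein fluorescence (485/535 nm) fitted by four-parameter curve; Emax and EMR relative to HU210.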

[1] = EC50 value at the cloned human cannabinoid CB2 receptor
[2] = read-out: EC50 value at the cloned human cannabinoid CB2 receptor

human cannabinoid CB2 receptor, sequence (P34972 whole entry): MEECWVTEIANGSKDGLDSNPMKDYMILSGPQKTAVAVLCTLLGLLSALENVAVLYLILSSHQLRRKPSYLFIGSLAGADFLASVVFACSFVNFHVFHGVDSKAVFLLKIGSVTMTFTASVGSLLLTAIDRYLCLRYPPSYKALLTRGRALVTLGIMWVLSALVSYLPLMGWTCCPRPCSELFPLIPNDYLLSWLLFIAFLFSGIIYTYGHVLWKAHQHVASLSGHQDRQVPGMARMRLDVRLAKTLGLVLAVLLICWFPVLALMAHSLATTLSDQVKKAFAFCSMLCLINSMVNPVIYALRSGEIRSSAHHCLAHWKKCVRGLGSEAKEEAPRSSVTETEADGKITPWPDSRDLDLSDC

| Structure (SMILES) | Emax [%] | activity in the CB2 assay described herein | EC50 [1] [nM] | EC50 [2] [nM] |
| --- | --- | --- | --- | --- |
| Cc1cccc(Nc2cc(C(C)C)c(C(=O)NCc3ccc(F)cc3)cn2)c1C#N [Example 395, 6-(2-Cyano-3-methyl-phenylamino)-N-(4-fluoro-benzyl)-4-isopropyl-nicotinamide] | > 50 |  |  |  |
| CN(Cc1ccccc1)C(=O)c1cnc(Nc2ccc(C(C)(C)C)cc2)nc1C(F)(F)F [2-(4-tert-butyl-phenylamino)-4-trifluoromethyl-pyrimidine-5-carboxylic acid benzyl-methyl-amide] |  | inactive |  |  |
| O=C(NC1CCC1)c1cnc(Nc2ccc(Cl)cc2Cl)nc1C(F)(F)F [Example 49, 2-(2,4-Dichlorophenylamino)-4-trifluoromethylpyrimidine-5-carboxylic acid cyclobutylamide] | > 50 |  | 20 to 300 |  |
| O=C(NCC1CCOCC1)c1cnc(Nc2ccc(Cl)c(Cl)c2)nc1C(F)(F)F [Example 250, 2-(3,4-Dichlorophenylamino)-4-trifluoromethylpyrimidine-5-carboxylic acid (tetrahydro-pyran-4-ylmethyl)-amide] | > 50 |  | 20 to 300 |  |
| O=C(NCc1ccccc1)c1cnc(Nc2cccc(Cl)c2)nc1C(F)(F)F [Example 266, 2-(3-Chlorophenylamino)-4-trifluoromethylpyrimidine-5-carboxylic acid benzyl-amide] | > 50 |  | 20 to 300 |  |
| O=C(NCc1ccc(F)cc1)c1cnc(Nc2ccc(F)c(Cl)c2)nc1C(F)(F)F [Example 347, 2-(3-Chloro-4-fluoro-phenylamino)-4-trifluoromethyl-pyrimidine-5-carboxylic acid 4-fluoro-benzylamide] |  |  | 20 to 300 |  |
| O=C(NCc1ccc(F)cc1)c1cnc(Nc2cccc(Br)c2)nc1C(F)(F)F [Example 289, 2-(3-Bromophenylamino)-4-trifluoromethylpyrimidine-5-carboxylic acid 4-fluorobenzyl-amide] |  |  |  | 20 to 300 |
| Cc1ccc(Nc2ncc(C(=O)NCC3CCOCC3)c(C(F)(F)F)n2)cc1Cl [Example 184, 2-(3-Chloro-4-methylphenylamino)-4-trifluoromethyl-pyrimidine-5-carboxylic acid (tetrahydropyran-4-ylmethyl)-amide] | > 50 |  | 20 to 300 |  |
| O=C(NCC1CCCCC1)c1cnc(Nc2cccc(Cl)c2)nc1C(F)(F)F [Example 4, 2-(3-Chlorophenylamino)-4-trifluoromethylpyrimidine-5-carboxylic acid cyclohexylmethylamide] | > 50 |  | 20 to 300 |  |
| O=C(NCc1ccc(Cl)cc1)c1cnc(Nc2cccc(Cl)c2)nc1C(F)(F)F [Example 298, 2-(3-Chloro-phenylamino)-4-trifluoromethyl-pyrimidine-5-carboxylic acid 4-chloro-benzylamide] | > 50 |  | 300 to 1000 |  |
| O=C(NCC1CCC1)c1cnc(Nc2ccc(Br)cc2Cl)nc1C(F)(F)F [Example 227, 2-(2-Chloro-4-bromo-phenylamino)-4-trifluoromethyl-pyrimidine-5-carboxylic acid cyclobutylmethyl-amide] | > 50 |  | 20 to 300 |  |
| O=C(NCC1CCCC1)c1cnc(Nc2cccc(Cl)c2F)nc1C(F)(F)F [Example 248, 2-(3-Chloro-2-fluoro-phenylamino)-4-trifluoromethyl-pyrimidine-5-carboxylic acid cyclopentylmethyl-amide] | > 50 |  | 20 to 300 |  |
| O=C(NCC1CCCCC1)c1cnc(Nc2ccc(Br)cc2Cl)nc1C(F)(F)F [Example 225, 2-(2-Chloro-4-bromo-phenylamino)-4-trifluoromethyl-pyrimidine-5-carboxylic acid cyclohexylmethyl-amide] | > 50 |  | 20 to 300 |  |
| O=C(NCC1CCOCC1)c1cnc(Nc2ccc(F)cc2Cl)nc1C(F)(F)F [Example 233, 2-(2-Chloro-4-fluoro-phenylamino)-4-trifluoromethyl-pyrimidine-5-carboxylic acid (tetrahydro-pyran-4-ylmethyl)-amide] | > 50 |  | 20 to 300 |  |
| O=C(NCc1ccc(F)cc1)c1cnc(Nc2cccc(Cl)c2)nc1C(F)(F)F [Example 270, 2-(3-Chlorophenylamino)-4-trifluoromethylpyrimidine-5-carboxylic acid 4-fluorobenzyl-amide] |  |  |  | 20 to 300 |
| O=C(NCC1CCOCC1)c1cnc(Nc2cc(F)cc(C(F)(F)F)c2)nc1C(F)(F)F [Example 180, 2-(3-Fluoro-5-(trifluoromethyl)phenylamino)-4-trifluoromethyl-pyrimidine-5-carboxylic acid (tetrahydropyran-4-ylmethyl)-amide] | > 50 |  | 20 to 300 |  |
| O=C(NCC1CCCCC1)c1cnc(Nc2c(Cl)cccc2Cl)nc1C(F)(F)F [Example 21, 2-(2,6-Dichlorophenylamino)-4-trifluoromethylpyrimidine-5-carboxylic acid cyclohexylmethyl-amide] | > 50 |  | 20 to 300 |  |

| Structure (SMILES) | Emax [%] | activity in the CB2 assay described herein | EC50 [1] [nM] | EC50 [2] [nM] |
| --- | --- | --- | --- | --- |
| O=C(c1cnc(Nc2ccc(Cl)c(Cl)c2)nc1C(F)(F)F)N1CCOCC1 [Example 68, 1-[2-(3,4-Dichlorophenylamino)-4-trifluoromethylpyrimidin-5-yl]-1-(morpholin-4-yl)-methanone] | > 50 |  | 20 to 300 |  |
| O=C(NC1CCCC1)c1cnc(Nc2ccc(Cl)c(Cl)c2)nc1C(F)(F)F [Example 74, 3,4-Dichlorophenylamino-4-trifluoromethyl-pyrimidine-5-carboxylic acid cyclopentylamide] | > 50 |  | 300 to 1000 |  |
| CSc1c(Nc2ncc(C(=O)NCC3CCOCC3)c(C(F)(F)F)n2)cccc1C(F)(F)F [Example 182, 2-(2-Methylthio-3-(trifluoromethyl)phenylamino)-4-trifluoromethyl-pyrimidine-5-carboxylic acid (tetrahydropyran-4-ylmethyl)-amide] | > 50 |  | 20 to 300 |  |
| COc1cccc(Nc2ncc(C(=O)NCC3CCCCC3)c(C(F)(F)F)n2)c1 [Example 163, 2-(3-Methoxyphenylamino)-4-trifluoromethyl-pyrimidine-5-carboxylic acid cyclohexylmethyl-amide] |  |  |  | 20 to 300 |
| N#Cc1ccc(Nc2ncc(C(=O)NCC3CCOCC3)c(C(F)(F)F)n2)c(Cl)c1 [Example 235, 2-(2-Chloro-4-cyano-phenylamino)-4-trifluoromethyl-pyrimidine-5-carboxylic acid (tetrahydro-pyran-4-ylmethyl)-amide] | > 50 |  | 20 to 300 |  |
| O=C(NC[C@H]1CCCO1)c1cnc(Nc2cccc(Br)c2)nc1C(F)(F)F [Example 80, 2-(3-bromophenylamino)-4-trifluoromethyl-pyrimidine-5-carboxylic acid [R-1-(tetrahydrofuran-2-yl)methyl]-amide] | > 50 |  | 300 to 1000 |  |
| O=C(NCc1ccccc1)c1cnc(Nc2cccc(Br)c2)nc1C(F)(F)F [Example 278, 2-(3-Bromophenylamino)-4-trifluoromethylpyrimidine-5-carboxylic acid benzyl-amide] | > 50 |  | 20 to 300 |  |
| O=C(NCC1CCC1)c1cnc(Nc2ccc(Cl)cc2Br)nc1C(F)(F)F [Example 230, 2-(2-Bromo-4-chloro-phenylamino)-4-trifluoromethyl-pyrimidine-5-carboxylic acid cyclobutylmethyl-amide] | > 50 |  | 20 to 300 |  |
| O=C(NCC1CCCCC1)c1cnc(Nc2ccc(F)cc2F)nc1C(F)(F)F [Example 221, 2-(2,4-Difluoro-phenylamino)-4-trifluoromethyl-pyrimidine-5-carboxylic acid cyclohexylmethyl-amide] | > 50 |  | 20 to 300 |  |
| O=C(NCC1CCOCC1)c1cnc(Nc2cc(Cl)ccc2Cl)nc1C(F)(F)F [Example 35, 2-(2,5-Dichlorophenylamino)-4-trifluoromethylpyrimidine-5-carboxylic acid (tetrahydropyran-4-ylmethyl)-amide] | > 50 |  | 20 to 300 |  |
| O=C(NCc1ccc(F)cc1F)c1cnc(Nc2cccc(Cl)c2)nc1C(F)(F)F [Example 368, 2-(3-Chloro-phenylamino)-4-trifluoromethyl-pyrimidine-5-carboxylic acid 2,4-difluoro-benzylamide] |  |  | 20 to 300 |  |
| CN(CC1CCOCC1)C(=O)c1cnc(Nc2cccc(Cl)c2)nc1C(F)(F)F [Example 211, 2-(3-Chlorophenylamino)-4-trifluoromethyl-pyrimidine-5-carboxylic acid methyl-(tetrahydro-pyran-4-ylmethyl)-amide] | > 50 |  | 20 to 300 |  |
| Cc1cccc(Nc2ncc(C(=O)NCC3CCCCC3)c(C(F)(F)F)n2)c1Cl [Example 92, 2-(2-Chloro-3-methyl-phenylamino)-4-trifluoromethyl-pyrimidine-5-carboxylic acid cyclohexylmethyl-amide] | > 50 |  | 300 to 1000 |  |
| O=C(c1cnc(Nc2cccc(F)c2)nc1C(F)(F)F)N1CCOCC1 [Example 10, 1-[2-(3-Fluorophenylamino)-4-trifluoromethylpyrimidin-5-yl]-1-morpholin-4-yl-methanone] | > 50 |  | 20 to 300 |  |
| N#Cc1ccc(Nc2ncc(C(=O)NCC3CCCCC3)c(C(F)(F)F)n2)cc1 [Example 174, 2-(4-Cyanophenylamino)-4-trifluoromethyl-pyrimidine-5-carboxylic acid cyclohexylmethyl-amide] |  |  |  | 20 to 300 |
| O=C(NCC1CCOCC1)c1cnc(Nc2ccc(F)cc2F)nc1C(F)(F)F [Example 98, 2-(2,4-Difluorophenylamino)-4-trifluoromethyl-pyrimidine-5-carboxylic acid (tetrahydro-pyran-4-ylmethyl)-amide] | > 50 |  | 300 to 1000 |  |
| COc1cccc(Nc2ncc(C(=O)NC3CCC3)c(C(F)(F)F)n2)c1 [Example 53, 2-(3-Methoxyphenylamino)-4-trifluoromethylpyrimidine-5-carboxylic acid cyclobutylamide] | > 50 |  | 20 to 300 |  |
